Experimental data from publication PMC11320574 (ACS Infectious Diseases, 2024).
Positions of bridges follow the written chain, without caps; N, C: chain ends. Residues, ends and D or L forms follow the SMILES beside them.

What was measured:
P. falciparum 3D7 = assay: In vitro growth inhibition of P. falciparum 3D7; assay type: cell-based, Plasmodium falciparum; conditions: HC10 of uninfected RBCs relative to Pf IC50 with 5 mg/mL Albumax II supplement
[1] = Resistance to breakdown by serum proteases; assay type: in vitro ADME; conditions: human, 25% (v/v) human serum in PBS

**Q.** For `CC[C@H](C)[C@@H]1NC(=O)[C@H](CCCCN)NC(=O)[C@H](CCCCN)NC(=O)[C@H](Cc2ccc(O)cc2)NC(=O)[C@H](CC(C)C)NC(=O)[C@@H]2CCCN2C(=O)[C@H](C)NC(=O)CNC(=O)CNC(=O)[C@H](CO)NC(=O)CNC(=O)CNC(=O)[C@H](CO)NC(=O)[C@H](CCCCN)NC(=O)[C@H](CC(C)C)NC(=O)[C@H](CC(C)C)NC(=O)[C@H](CCCCN)NC(=O)[C@H](CCCCN)NC(=O)[C@H]([C@@H](C)CC)NC(=O)[C@H]([C@@H](C)CC)NC(=O)[C@H](CCCCN)NC(=O)[C@H](CCCCN)NC(=O)[C@H](Cc2ccc(O)cc2)NC(=O)[C@H](CC(C)C)NC(=O)[C@@H]2CCCN2C(=O)CNC(=O)CNC(=O)[C@@H](NC(=O)CN)CSSC[C@@H](C(N)=O)NC(=O)[C@H](CC(C)C)NC(=O)[C@H](CCCCN)NC(=O)[C@H](CCCCN)NC(=O)[C@H]([C@@H](C)CC)NC1=O` [Peptide 10] (H-GCGGPLYKKIIKKLLKSGGSGGAPLYKKIIKKLC-NH2; disulfide 2-34; N-terminus assumed), which “Activity-hemolysis index RBC HC10/ Pf IC50” value (P. falciparum 3D7) is on record?
**A.** 6.5 ± 1.2

**Q.** What about the remaining at 24 h, 50 μM [1] of the same compound?
**A.** 0%
